Measured values from ChEMBL document CHEMBL5120954, “Novel MRGX2 Antagonists for Treating Diseases” (ACS Med Chem Lett, 2022).

What follows are compounds tested against T1, Mas-related G-protein coupled receptor member X2 (Homo sapiens, UniProt Q96LB1) (assay: Antagonist activity at human MRGPRX2 expressed in HEK293 cells co-expressing mouse Galpha15 assessed as inhibition of Cortistatin-14 induced Ca2+ mobilization preincubated for 30 mins followed by Cortistatin-14 addition by FLIPRtetra-calcium mobilization assay).
T1 sequence (Q96LB1 whole entry): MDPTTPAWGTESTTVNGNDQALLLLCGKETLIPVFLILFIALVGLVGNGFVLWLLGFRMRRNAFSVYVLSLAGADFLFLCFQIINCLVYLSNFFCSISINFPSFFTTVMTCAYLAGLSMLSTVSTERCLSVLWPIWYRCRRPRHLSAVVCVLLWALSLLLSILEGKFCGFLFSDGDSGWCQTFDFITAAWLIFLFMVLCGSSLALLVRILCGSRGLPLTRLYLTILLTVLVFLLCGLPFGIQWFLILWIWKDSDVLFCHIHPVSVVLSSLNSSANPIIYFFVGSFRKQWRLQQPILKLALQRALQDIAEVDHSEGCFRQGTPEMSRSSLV
Assay type: functional, cell-based

IC50, ≤ 10 nM:
CC(C(=O)Nc1ccc(Oc2cnc(F)cc2Cl)cn1)N1CCC(F)(F)[C@@H](c2ccc(=O)[nH]c2)C1 (stereo not given in full)
CC(C(=O)Nc1ccc(Oc2ccc(F)cc2)cn1)C1CCC(F)(F)C(c2ccc(=O)[nH]c2)C1 (stereo not given)
C[C@@H](C(=O)Nc1ccc(Oc2ccc(F)cc2F)cn1)N1CCC(F)(F)[C@@H](c2c[nH]c(=O)c(CS(C)(=O)=O)c2)C1
CC(C(=O)Nc1ccc(Oc2ccccc2)cn1)N1CCC(F)(F)[C@@H](c2c[nH]c(=O)c(CN)c2)C1 (stereo not given in full)
CC(C(=O)Nc1ccc(Oc2ccc(F)cc2)cn1)N1CCC(F)(F)C(c2c[nH]c(=O)c(CNCCO)c2)C1 (stereo not given)
